Values of other authors, collected in US20060083700A1, “Use of a novel phytonutrient rich bioactive concentrate (Ri-ActiveTM) for the prevention and treatment of cardiovascular disease, diabetes and other health disorders” (NaturRi LLC, priority 2004, published 2006).

Test system: hypercholesterolemic subjects
Details: 28 subjects, phases of 35 days

SMILES: CC[C@H](C)C(=O)O[C@H]1C[C@@H](C)C=C2C=C[C@H](C)[C@H](CC[C@@H]3C[C@@H](O)CC(=O)O3)[C@H]21 [lovastatin]
- reduction of LDL-C: 15%
- reduction of serum total cholesterol: 13%
